Key:
[1] = tested on: histone H4 gene expression; experiment: Northern analysis of histone H4 RNA levels in MC3T3-E1 cells; format: cell-based, mouse; conditions: 1 mM, within 45 minutes of treatment
Method: (§1) Northern blot analysis of nusap expression in hydroxyurea treated (1 mM) MC3T3-E1 cells. Cells were harvested at the indicated time points (minutes) after treatment. The different cell cycle phases were assigned based on the RNA levels of histone H4, a S-phase marker. The blots were hybridized with the following cDNA probes: human histone H4, pFO002; and a 0.8 kb NuSAP BglII/AspI restriction fragment. The 18S cDNA probe was used as a control to assess equal loading.
(§2) Growth arrest of MC3T3-E1 cells by serum starvation was accomplished by changing complete medium (10% FCS) to medium containing 0.1% FCS in subconfluent cultures. The quiescent cells were released from growth arrest by adding complete medium (10% FCS), whereafter cells were harvested at the indicated time points.
(§3) Total cellular RNA was extracted from cell cultures using TriZol LS. Foetal mice and soft tissues from adult mice (C57BL/6; 8 wk old) were directly homogenized in TriZol (GIBCO BRL), while femurs and tibias were ground to a fine powder prior to homogenization, followed by total cellular RNA extraction. […]

[2] = tested on: nusap gene expression; experiment: Northern analysis of nusap gene expression in MC3T3-E1 cells; format: cell-based, mouse
Method: FIG. 2 represents a Northern blot analysis showing nusap gene expression in sub-confluent cultures of MC3T3-E1 cells after treatment with vehicle or 1,25(OH)2D3 (10^−8 M) for 24 hours. The size (kb) of the three transcripts is indicated.
as §1, §2, §3

[3] = tested on: mouse osteoblastic MC3T3-E1 cells; experiment: [3H]-thymidine incorporation, proliferation of MC3T3-E1 cells; format: cell-based; conditions: varying doses, 24 and 48 h, versus vehicle
Method: (a) The proliferation of MC3T3-E1 cells was analyzed after treatment for 24 and 48 h with varying doses of 1,25(OH)2D3 by monitoring [^3H]-thymidine incorporation. Data represent mean±SD of six replicates of a representative experiment. Values of vehicle (ethanol) treated cells were taken as 100%. (*P<0.001; versus vehicle, t test) All culture reagents, unless otherwise mentioned, were obtained from GIBCO BRL (Life Technologies, Grand Island, N.Y.). Murine osteoblast-like MC3T3-E1 cells (Sudo et al. (1983). J. Cell Biol. 96:191-198) were purchased from Riken Cell Bank (H. Kodama, Japan), and maintained in αMEM supplemented with 10% heat-inactivated FCS and penicillin-streptomycin (100 U/ml and […], respectively). Sub-confluent MC3T3-E1 cell cultures are defined to be in the proliferation state, while confluent and mineralising cells have entered the differentiation stage. COS-1 and NIH3T3 cells (American Type Culture Collection, Manassas, Va.) were cultured respectively in Dulbecco's modified eagle medium (hereinafter DME) and DME-F12, plus 10% heat-inactivated FCS. For NIH3T3 cells, the medium was supplemented with glutamax (2 mM) and glucose (4.5 g/l). Cultures were grown at 37° C. in a humidified atmosphere containing 5% CO2 in air. […] Significant effects were already observed after 24 hours and this inhibition became more pronounced with increasing time. […]

[4] = tested on: microtubules (α-tubulin) / GFP-tagged NuSAP; experiment: Immunofluorescence localization of GFP-tagged NuSAP in transfected COS-1 cells; conditions: for distribution of NuSAP in the nucleoli during interphase: COS-1 cells in interphase; for distribution of NuSAP and α-tubulin in mitotic cells: mitotic COS-1 cells, nocodazole 10 μM for 1 hour, taxol 5 μM for 1 hour
[5] = tested on: DNA synthesis (BrdUrd incorporation); experiment: BrdUrd immunostaining in transfected COS-1 cells; format: cell-based; conditions: 20 μg/ml for several hours
Method: […] […] C is the merger of A and B. In some cells, BrdUrd incorporation is distinctly aggregated (E), and these sites overlap with NuSAP-GFP (D) and F (which is the merger of D and E).
Alternatively, cells were fixed and permeabilized in 0.4% glutaraldehyde/0.5% Triton X100/PBS for 15 minutes at room temperature. After incubation in 0.5 mg NaBH4/ml PBS (10 minutes), and blocking in 5% BSA/PBS (10 minutes), cells were incubated with primary antibodies for 1 h. Cells were washed and after incubation with 50% normal serum (Dako) (10 minutes), cells were incubated with secondary antibodies conjugated to Alexa-488 or -546 dye (Molecular Probes) (1 hour) and finally mounted using Dako mounting medium. Antibodies and normal serum were diluted in 0.5% Tween20/PBS. Analysis was done on a Nikon inverted microscope Diaphot 300 (Plan Apo 60/1.40 oil) connected to a Bio-Rad MRC1024 confocal microscope and images were captured by LaserSharp (version 3.2) and processed using Adobe Photoshop 5.5 (Adobe Systems Inc., San Jose Calif.). The images showing a-tubulin localization were taken using a Leitz DM microscope and were recorded using a cooled charge-coupled device camera (Photometrics Inc., Tucson, Ariz.) and IP-Lab software. […]

SMILES: NC(=O)NO [hydroxyurea]
- histone H4 RNA levels [1]: undetectable
- nusap gene expression (RNA level) ([2]; MC3T3-E1 cells, 1 mM, within 45 minutes of treatment): markedly down-regulated

SMILES: C=C1/C(=C\C=C2/CCC[C@]3(C)[C@@H]([C@H](C)CCCC(C)(C)O)CC[C@@H]23)C[C@@H](O)C[C@@H]1O [1α,25(OH)2D3, 1α,25-dihydroxyvitamin D3]
- proliferation measured by [3H]-thymidine incorporation [3]: inhibited the proliferation of these cells
- nusap gene expression (Northern analysis) ([2]; sub-confluent MC3T3-E1 cells, 10^-8 M for 24 hours versus vehicle): inhibition of nusap gene expression

SMILES: CC(=O)O[C@H]1C(=O)[C@@]2(C)[C@H]([C@H](OC(=O)c3ccccc3)[C@]3(O)C[C@H](OC(=O)[C@H](O)[C@@H](NC(=O)c4ccccc4)c4ccccc4)C(C)=C1C3(C)C)[C@]1(OC(C)=O)CO[C@@H]1C[C@@H]2O [taxol]
- distribution of NuSAP in the nucleoli during interphase [4]: Neither nocodazole nor taxol treatment affected
- distribution of NuSAP and α-tubulin in mitotic cells [4]: resulted in NuSAPs translocation to these structures

SMILES: C[C@@]1(CO)[C@H](O)CC[C@@]2(C)[C@H]1CC[C@H]1C[C@@H]3C[C@@]12CC[C@]3(O)CO [aphidicolin]
- immunostaining for BrdUrd [5]: loss of immunostaining for BrdUrd

SMILES: COC(=O)Nc1nc2ccc(C(=O)c3cccs3)cc2[nH]1 [nocodazole]
- distribution of NuSAP in the nucleoli during interphase [4]: Neither nocodazole nor taxol treatment affected
- distribution of NuSAP and α-tubulin in mitotic cells [4]: NuSAP and α-tubulin redistributed throughout the cell

From patent US20030157072A1, “Nusap, a novel gene encoding a tissue-specific nuclear protein, useful as a diagnostic tool and therapeutic agent” (priority 2003, published 2003)
